Results reported in patent publication US12343349B2, “Imipramine for use as an inhibitor of Fascin1 overexpression” (FUNDACION UNIVERSITARIA SAN ANTONIO, priority 2018, dated 2025).
Like-named read-outs stand apart in the source and are kept apart here.

What was measured:
[1] = system: HCT116 cell line; experiment: Immunofluorescence of fascin1 localization and lamellipodia formation; assay type: cell-based, human; details: for filopodia lamellipodium formation: 24 h, migrastatin 100 μM, imipramine 20 μM, PD98059 50 μM, EGF 10 ng/ml; for Lamellipodia protrusion number: data not shown
Method: In order to assess the effect of imipramine on fascin1 localization and lamelipodia formation an immunofluorescence assay was performed. Round coverslips (Thermo Fisher, Waltham, MA USA) were seeded with HCT116 cell line in the presence of 10% FBS. After cells reached 100% confluence, serum supplemented medium was removed and replaced with fresh serum free medium for 24 h. Artificial wounding was performed by transversally dragging a sterilized razor blade on the central area of the coverslips. Coverslips were then placed in 6-well plate with 2 mL serum free DMEM and 100 μM migrastatin, 20 μM imipramine, Epidermal Growth Factor (EGF) 10 ng/ml and MEK inhibitor PD98059 50 μM (MEKi) (both from Sigma-Aldrich, St Louis, MO, USA) for 24 h. Cells were then fixed with Bouin (for fascin1 protein) or 4% formaldehyde (for actin protein) and subsequently permeabilized in a 0.3% Triton X-100/PBS solution, and then exposed to blocking buffer for 30 min. Samples were incubated for 1 h with anti-fascin1 antibody (1/250) (55K-2 clone; Santa Cruz Biotechnology, Heidelberg, Germany) or anti-β actin antibody (1/1000) (Sigma-Aldrich, St Louis, MO, USA) in a wet chamber.
Appropriate fluorescent-labelled primary antibodies were incubated later with Alexa fluor 488-conjugated anti-mouse IgG (from donkey) (1/400) or Alexa fluor 594-labelled phalloidin, respectively (1/1000) (Molecular Probes, Thermo Fisher Scientific, Waltham, MA USA) and Hoechst 33258 (Fluka, Biochemika, Sigma-Aldrich, St Louis, MO, USA) for 30 min at room temperature and darkness. Samples were examined and representative images were taken with a confocal microscope (LSM 510 META from ZEISS, Jena, Germany). The effect of imipramine on the fascin1 localization and the reorganization of the actin cytoskeleton, which includes the protrusion of the lamellipodium at the cell front filopodia formation and fascin1 localization, was assessed by immunofluorescence.

[2] = system: DLD1 colorectal cancer cell line; experiment: Cell migration (wound healing) assay, DLD1; assay type: cell-based, human; details: for Migration (%): DLD1, slope 4-7 h relative to control, imipramine 20 μM, migrastatin 100 μM
Method: (§1) Except for SW-480, imipramine effect was more pronounced than migrastatin, especially for DLD-1. Cell migration was studied with the three cell lines by performing the wound healing assay in the presence of 5% FBS. Cancer colorectal cells (50,000 cells) were plated in low 35-mm-dishes with culture inserts (Ibidi, Martinsried, Germany). After appropriate cell attachment and monolayer formation (around for 24 h), inserts were then removed with sterile forceps to create a wound field of approximately 500 μm, according to the manufacturer protocol. Detached cells were gently removed with phosphate buffered saline (PBS, Dubelco) before the addition of drugs. Confluent cells were incubated in one of the following treatments: 100 μM migrastatin (AnalytiCon Discovery, cat. No. NP-006108), and 20 μM imipramine ((purchased via Molport, Letonia) and, control dishes that were incubated in the presence of 0.1% DMSO. Cells were then allowed to migrate in a cell culture incubator for 24 h. At 0, 3, 5 and 7 h (linear growth phase), 10 fields of the injury area were photographed with an inverted and phase contrast microscopy at ×10 magnification incorporating a CCD camera. For each timepoint, the area uncovered by cells was determined by an image processing free software analysis with Image J software program.
(§2) The migration speed of the wound closure is given as the percentage of the recovered area at each time point, relative to the initially covered area (0 h). The velocity of wound closure (%/h) was calculated according to the formula: Slope (%/h)=((% covered area t_x)−(% covered area t_0))/((tx−t_0)). Slopes are then expressed as percentages relative to control conditions.

[3] = molecular target: T1, fascin1 (Homo sapiens, UniProt Q16658); experiment: Differential Scanning Fluorimetry (Thermofluor) thermal shift assay; assay type: binding; details: for ΔTm at 1000 µM: vs free fascin1
T1 construct: purchased Hypermol, Bielefeld, Germany 8411-02
Method: Differential Scanning Fluorimetry (Thermofluor) assays were performed using a Biorad C1000 Touch Thermal Cycler CFX96 RT-PCR system in a 96-well format.
Imipramine was prepared at 10 mM in 100% DMSO and added to each well to a final concentration of 1 mM and 10% DMSO. Three replicates with six internal controls, containing only free protein in 10% DMSO, were included in the 96-well plates. The PCR plates were covered and subsequently shaken, centrifuged, incubated for 2 min at 20° C. inside the RT-PCR machine and heated from 20 to 100° C. at a 1° C./min scan-rate. Fascin1 thermal denaturation profiles were obtained recording the fluorescence intensity for the FAM, HEX and T-Red predefined filters. The derivative of the fluorescence curve was used to determine the Tm. Changes in Tm associated to ligand binding were estimated taking the average Tm value derived from the free protein internal controls.
[formula] Ff and Fb are the fluorescence signal (area or CM) of free and bound fascin1 and PT and LT are the total protein and ligand concentration, respectively, at each addition point. Tm values were measured as the minimum of the first derivative of the thermal unfolding profile.

[4] = system: HCT116 cells; experiment: Transwell invasion assay on Matrigel; assay type: cell-based, human; details: 30 hours; migrastatin 100 μM, imipramine 20 μM
Method: Tumor cell invasion not only involved the acquisition of migration properties but also the ability to degrade the extracellular matrix (ECM). For that reason, we performed a Transwell assay on Matrigel which resembles the ECM composition. The invasive capacities of HCT116 cells were determined using Cytoselect TM 24 Well Cell Invasion Assay (Basement Membrane Colorimetric Format) with coated Transwell chambers (8 μm pore size). Briefly, cells were resuspended with serum-free medium and treated with corresponding inhibitors (migrastatin 100 μM and, imipramine 20 μM). Cells (9.5×10^4) were seeded into the upper chamber, and in the lower chamber 500 μL of DMEM containing 10% FBS were added. After 30 hours of incubation, cells that remained on the upper chamber were scraped away with a cotton swab, and cells that migrated to the bottom of the filter were stained with the cell stain solution. The number of invaded cells was photographed under an inverted phase contrast microscope and quantified D.O.D by a spectrophotometer at λ=560 nm. Also we analyzed the invasive cells using the Image J software. […] A) Invasiveness of cells after treatment with different drugs. Pictures were taken under an inverted phase contrast microscope. The magnification was ×200 and scale bars=50 μm. B) Quantification of the invasive cells D.O. by a spectrophotometer at A=560 nm. […]

[5] = molecular target: T1, fascin1; experiment: Fluorescence titration; assay type: binding; details: 25° C., 10% DMSO, 100 mM NaCl, 20 mM Hepes, pH 7.4; read-out: dissociation constant Kd
Method: Fascin1 was extensively dialized against the appropriate buffer prior to each titration experiment. Fascin1 concentration was determined by measuring absorbance at 280 nm using an extinction coefficient of 67840 cm-1-M-1. Fluorescence titration experiments were performed in a Cary Eclipse spectrofluorimeter (Varian Inc.). A 15 μM (14.7 μM) fascin1 solution was titrated with each compound by adding increasing volumes of concentrated solutions. Emission spectra were recorded between 307 and 500 nm at 25° C. in 10% DMSO, 100 mM NaCl, 20 mM Hepes, pH 7.4, with the excitation wavelength fixed at 280 nm. Binding isotherms were generated using either the changes in spectral area or in spectral centre of mass (CM), depending whether the change was only in fluorescence intensity or was also in the maximum emission wavelength.
The resulting curves were fitted using ORIGIN 7.0 (Microcal Inc.) and a one-site equilibrium binding model, according to the following equation:
[formula] Ff and Fb are the fluorescence signal (area or CM) of free and bound fascin1 and PT and LT are the total protein and ligand concentration, respectively, at each addition point. Tm values were measured as the minimum of the first derivative of the thermal unfolding profile. […]

[6] = system: colorectal cancer cell lines (DLD-1 and HCT-116) injected in zebra fish; experiment: Zebra fish larvae invasion model (xenograft); assay type: in vivo; details: DLD-1 and HCT-116 cells treated and injected in larvae
Method: Finally, in order to find out whether the anti-invasive properties of imipramine could be extrapolable to an animal system, the well-established zebra fish larvae invasion model was used. A xenograft assay was carried out by stained with fluorescent CM-Dil (Vibrant, Invitrogen) two colorectal cancer cell lines (DLD-1 and HCT-116) and injected in zebra fish. The result obtained is referred to the percentage of cell invasion.
Injection and migration of different colorectal cancer cell lines in zebra fish model (A). Two colorectal cancer cell lines (DLD-1 and HCT-166) were treated with migrastatin and imipramine and injected in zebra fish larvae.

[7] = system: HCT-116 colorectal cancer cell line; experiment: Cell migration (wound healing) assay, HCT-116; assay type: cell-based, human; details: for Migration (%): slope 4-7 h relative to control, imipramine 20 μM, migrastatin 100 μM
Method: as §1, §2

[8] = system: HCT-116 colorectal cell line; experiment: Myoma organotypic invasion model; assay type: cell-based, human; details: HCT-116, 14 days, compared to control
Method: To improve the reliability of the experimental model compared to the real tumor microenvironment, cancer cell invasion was assessed in the myoma organotypic cultures and performed according to the previously published myoma model (Åström, P., Heljasvaara, R., Nyberg, P., Al-Samadi, A., & Salo, 2018). Briefly, uterine leiomyoma tissues were obtained from routine surgery after informed consent of the donors and their use approved by The Ethics Committee of the Oulu University Hospital. The myoma tissue was sliced into 5 mm and disks were made with an 8-mm biopsy punch (Kai Industries Co., Gifu, Japan). Myoma disks were pre-incubated in 100 μM MGS, 10 μM and 20 μM imipramine or 0.1% DMSO-DMEM treatments at +4° C. for 48 h. The myoma disks were placed into Transwell inserts (diameter 6.5 mm; Corning Incorporated, Corning, NY) and 700,000 cells in 50 μl of media were added on top of each myoma disk. The cells were allowed to attach overnight and the myoma disks were transferred onto uncoated nylon disks resting on curved steel grids in 12-well plates with 12 well plates with 1 ml of media plus migrastatin and imipramine in each well. The cancer cells were left to invade the myoma disks for 14 days, while changing the treatment media every 3 days. Subsequently the myoma discs were fixed with 4% neutral buffered formalin at room temperature for 24 h, and processed for histology. […]

[9] = system: SW-480 colorectal cancer cell line; experiment: Cell migration (wound healing) assay, SW-480; assay type: cell-based, human; details: for Migration (%): slope 4-7 h relative to control, imipramine 20 μM, migrastatin 100 μM
Method: as §1, §2

Molecule | filopodia lamellipodium formation [1] | Migration (%) [2] [%] | inhibition of migration ([2]; DLD-1, 20 μM, p<0.05) | Tm, FAM ([3]; 1 mM compound, 2 μM fascin1, FAM filter) [°C] | ΔTm at 1000 µM ([3]; 1 mM compound, 2 μM fascin1, FAM filter, read-out: ΔTm, FAM) [°C] | Tm, HEX ([3]; 1 mM compound, 2 μM fascin1, HEX filter) [°C] | ΔTm at 1000 µM ([3]; 1 mM compound, 2 μM fascin1, HEX filter, read-out: ΔTm, HEX) [°C] | Tm, TRed ([3]; 1 mM compound, 2 μM fascin1, T-Red filter) [°C] | ΔTm at 1000 µM ([3]; 1 mM compound, 2 μM fascin1, T-Red filter, read-out: ΔTm, TRed) [°C] | increase in Tm ([3]; text summary over filters) | HCT-116 cell invasive ability (transwell) [4] | Kd [5] [µM] | cell invasion in zebra fish larvae [6] | inhibition of migration ([7]; 20 μM, p<0.05) | Migration (%) [7] [%] | Lamellipodia protrusion number [1] | area of invasion [8] | depth of invasion [8] | inhibition of migration ([9]; 20 μM, p<0.05) | Migration (%) [9] [%]
EGF: Epidermal Growth Factor (migration stimulator) | prominent filopodia lamellipodium formation |  |  |  |  |  |  |  |  |  |  |  |  |  |  |  |  |  |  | 
CN(C)CCCN1c2ccccc2CCc2ccccc21 [imipramine, 3-(10,11-dihydro-5H-dibenzo[b,f]azepin-5-yl)-N,N-dimethylpropan-1-amine] | absent | 23.21 | remarkable inhibition of migration | 58.3 ± 0.6 | 2.7 ± 1.1 | 58.0 ± 0.0 | 2 | 58.0 ± 0.0 | 1.8 ± 0.6 | about 2 °C | inhibit tumor cell migration | 390 | diminishing cell invasion is evident | remarkable inhibition of migration | 43.25 | significantly lower | inhibits | inhibits | remarkable inhibition of migration | 77.52
CO[C@H]1/C=C/CC/C=C/C(=O)O[C@H]([C@H](C)C(=O)CCCC2CC(=O)NC(=O)C2)/C(C)=C\[C@@H](C)[C@@H]1O [migrastatin] | absent | 67.91 |  |  |  |  |  |  |  |  | inhibit tumor cell migration |  |  |  | 44.59 | significantly lower |  |  |  | 70.34
COc1cccc(-c2cc(=O)c3ccccc3o2)c1N [PD98059] | absent |  |  |  |  |  |  |  |  |  |  |  |  |  |  |  |  |  |  | 
